Assay: Accumulation of intravascularly injected oncolytic adenovirus in EL4 tumours (hexon staining, qPCR of viral DNA)
Assay type: in vivo, SCID-beige female mice
Conditions: 1 μg TNF; tumours 100 mm^3; versus vehicle; FIG. 1B
Description: All adenoviruses were grown in 293 cells, and purified by double banding in CsCl gradients with Benzonase treatment after the first banding. Viral particle (VP) number was determined by measuring DNA content, using a PicoGreen assay (Invitrogen, Carlsbad, Calif.) (Murakami and McCaman, 1999, Anal Biochem; 274(2):283-8).
EL4 cells (2×10^6) were injected subcutaneously and allowed to form tumours in the left flank of 4- to 6-week-old SCID-beige female mice. Evans Blue was administered intravenously to compare permeability in 1 μg TNFα-treated animals versus controls. Oncolytic adenovirus was injected intravascularly when tumours were 100 mm^3 and relative distribution was assessed by hexon staining and quantitative polymerase chain reaction measurement of viral DNA.
To assess distribution of adenovirus in 1 μg TNF-treated animals versus controls, oncolytic adenovirus was injected intravascularly when tumours were 100 mm^3 and the relative distribution was assessed by hexon staining and quantitative polymerase chain reaction measurement of viral DNA. Three controls were also used.
Virus accumulation in the tumour was compared to that in the liver and in the spleen.

Compound | increase in accumulation (uptake) of intravenously administered adenovirus particles in tumours
COc1cc(/C=C\c2ccc(OC)c(OP(=O)(O)O)c2OP(=O)(O)O)cc(OC)c1OC [combrestatin (OXI4503), combrestatin] | increases were small compared to TNF
Angiotensin II (DRVYIHPF; Angiotensin-2; UniProt P01019 25-32, looked up) [control reported to increase tumour vessel permeability] | increases were small compared to TNF

— patent US11744877B2, “Method for permeabilizing tumor vasculature using a tumor vasculature permeabilizing molecule to improve access of a therapeutic or diagnostic agent to a tumor” (OXFORD UNIVERSITY INNOVATION LIMITED, priority 2010, dated 2023)
